For this experiment, the target named is T1, plasma membrane Ca2+-ATPase (PMCA), 90% PMCA4b (Homo sapiens, UniProt P23634).
T1 construct: gene ATP2B4
The experiment can be described thus: fluorescence of ATA bound to purified PMCA and quenching of intrinsic Trp fluorescence; also Ca2+-ATPase inhibition (Ki […]). The experiment is classed as binding.

In general, pKd refers to the negative decadic logarithm of the Kd, by convention in mol/L. A high value points to a low Kd.

The structures appear in SMILES notation. pKd: −log10 of the molar value.

T1 sequence (P23634 1-1205 isoform P23634-6): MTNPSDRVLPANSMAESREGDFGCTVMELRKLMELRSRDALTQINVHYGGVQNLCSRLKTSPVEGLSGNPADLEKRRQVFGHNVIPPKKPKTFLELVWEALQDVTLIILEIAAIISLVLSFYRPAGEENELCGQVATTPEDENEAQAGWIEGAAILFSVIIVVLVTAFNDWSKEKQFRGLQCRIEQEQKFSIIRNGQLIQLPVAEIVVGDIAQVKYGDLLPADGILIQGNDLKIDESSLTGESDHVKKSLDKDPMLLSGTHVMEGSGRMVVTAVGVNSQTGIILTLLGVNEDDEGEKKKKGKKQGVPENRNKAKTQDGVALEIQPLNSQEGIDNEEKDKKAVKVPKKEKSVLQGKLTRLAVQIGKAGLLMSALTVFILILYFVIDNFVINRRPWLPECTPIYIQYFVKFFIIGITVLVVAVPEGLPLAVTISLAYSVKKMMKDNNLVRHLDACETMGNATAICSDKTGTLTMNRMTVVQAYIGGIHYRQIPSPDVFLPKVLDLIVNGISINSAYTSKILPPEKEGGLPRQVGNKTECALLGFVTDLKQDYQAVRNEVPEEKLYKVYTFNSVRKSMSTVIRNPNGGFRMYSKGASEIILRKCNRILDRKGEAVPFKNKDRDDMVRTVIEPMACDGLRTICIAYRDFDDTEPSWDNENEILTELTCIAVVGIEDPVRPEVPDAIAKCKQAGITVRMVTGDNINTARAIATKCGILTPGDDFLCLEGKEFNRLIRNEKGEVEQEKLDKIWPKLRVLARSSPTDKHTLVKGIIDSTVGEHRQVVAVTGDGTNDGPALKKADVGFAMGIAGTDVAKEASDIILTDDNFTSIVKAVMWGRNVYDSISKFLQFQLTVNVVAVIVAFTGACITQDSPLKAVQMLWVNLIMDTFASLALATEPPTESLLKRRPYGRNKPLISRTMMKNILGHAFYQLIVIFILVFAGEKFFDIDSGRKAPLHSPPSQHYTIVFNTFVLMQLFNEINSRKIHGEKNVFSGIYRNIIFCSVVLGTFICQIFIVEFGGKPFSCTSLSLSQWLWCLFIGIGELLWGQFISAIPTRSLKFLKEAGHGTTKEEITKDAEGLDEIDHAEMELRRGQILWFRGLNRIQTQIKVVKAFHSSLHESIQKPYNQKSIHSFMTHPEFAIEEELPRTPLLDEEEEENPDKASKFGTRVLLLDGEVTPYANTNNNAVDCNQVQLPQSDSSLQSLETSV

Molecule `O=C(O)C1=CC(=C(c2ccc(O)c(C(=O)O)c2)c2ccc(O)c(C(=O)O)c2)C=CC1=O` [ATA, aurintricarboxylic acid] gave a pKd of 6.80.

Source of the values: PMC11208427, “Magnesium enhances aurintricarboxylic acid’s inhibitory action on the plasma membrane Ca^2+-ATPase” (Scientific Reports, 2024).
